In ChEMBL document CHEMBL6103615, “Thymidylate Kinase-Targeted Antimicrobial Peptides via Phage Display: A Novel Strategy against Gram-Negative Bacteria” (J Med Chem, 2025):
In brackets after ≈: the same amount, converted by molar mass. Activity calls are given as the source filed them. No cut-off for these calls is given here.

Key:
Escherichia coli [1] = experiment: Antibacterial activity against Escherichia coli K88 infected in ICR mouse model of peritoneal sepsis assessed as reduction in alveolar wall thickening in lungs at 20 mg/kg, ip measured after 10 hrs by H and E staining based analysis; format: functional, organism-based
[2] = Cytotoxicity against mouse RAW264.7 cells assessed as cell viability at 128 uM incubated for 4 hrs by MTT assay relative to control; format: toxicity, cell-based; conditions: read-out: Activity
[3] = (§1) Binding affinity to 6xHis-tagged recombinant Escherichia coli TMK assessed as dissociation constant by BLI assay
Escherichia coli [4] = experiment: as §1
Staphylococcus aureus [5] = experiment: Antibacterial activity against methicillin-resistant Staphylococcus aureus 43300 incubated for 12 to 18 hrs by microbroth dilution method; format: functional; conditions: time 12-18 hrs
Escherichia coli [6] = experiment: Inhibition of DNA migration in Escherichia coli K88 at 16 uM incubated for 40 mins by agarose gel electrophoresis.; format: functional, organism-based
Escherichia coli [7] = experiment: Antibacterial activity against Escherichia coli K88 infected in ICR mouse model of peritoneal sepsis assessed as reduction in edema in renal tubular epithelial cells at 20 mg/kg, ip measured after 10 hrs by H and E staining based analysis; format: functional, organism-based
Bacteria [8] = experiment: Antibacterial activity against bacterial cells at pH 12; format: functional
[9] = Selectivity ratio of MIC for antibacterial activity against Staphylococcus aureus 29213 to MIC for antibacterial activity against Escherichia coli K94; format: functional
Staphylococcus aureus [10] = experiment: Antibacterial activity against Staphylococcus aureus 25923 incubated for 12 to 18 hrs by microbroth dilution method; format: functional; conditions: time 12-18 hrs
Pseudomonas aeruginosa [11] = experiment: Antibacterial activity against Pseudomonas aeruginosa 27853 incubated for 12 to 18 hrs by microbroth dilution method; format: functional; conditions: time 12-18 hrs
Escherichia coli [12] = experiment: Antibacterial activity against Escherichia coli 078 incubated for 12 to 18 hrs by microbroth dilution method; format: functional; conditions: time 12-18 hrs
Escherichia coli [13] = experiment: Induction of outer membrane permeability in Escherichia coli K88 assessed as NPN leakage; format: functional, organism-based; conditions: dose 1-32 µM
[14] = Selectivity ratio of MIC for antibacterial activity against Salmonella typhimurium 7731 to MIC for antibacterial activity against Escherichia coli K98; format: functional
[15] = Toxicity in ICR mouse assessed as change in serum CREA level at 10 to 40 mg/kg, ip treated for 3 days consecutively; format: organism-based; conditions: in vivo, 72 h, dose 10-40 mg/kg, time 3 day
[16] = system: Lactiplantibacillus plantarum; experiment: Antibacterial activity against Lactobacillus plantarum 8014 incubated for 12 to 18 hrs by microbroth dilution method; format: functional; conditions: time 12-18 hrs
Escherichia coli [17] = experiment: Antibacterial activity against Escherichia coli K88 infected in ICR mouse model of peritoneal sepsis assessed as reduction in blood IL-1beta level at 20 mg/kg, ip measured after 10 hrs; format: functional, organism-based
Escherichia coli [18] = experiment: Induction of morphological changes in Escherichia coli K88 assessed as membrane folding at 2 uM incubated for 1 hr by SEM analysis; format: functional, organism-based
Escherichia coli [19] = experiment: Antibacterial activity against Escherichia coli K88 infected in ICR mouse model of peritoneal sepsis assessed as reduction in blood HMGB1 level at 20 mg/kg, ip measured after 10 hrs; format: functional, organism-based
Bacteria [20] = experiment: Antibacterial activity against bacterial cells at pH 4 to 10; format: functional
[21] = Selectivity ratio of MIC for antibacterial activity against Pseudomonas aeruginosa 27853 to MIC for antibacterial activity against Escherichia coli K96; format: functional
[22] = Selectivity ratio of MIC for antibacterial activity against Lactobacillus rhamnosus 7469 to MIC for antibacterial activity against Escherichia coli K89; format: functional
[23] = Selectivity ratio of MIC for antibacterial activity against Escherichia coli 078 to MIC for antibacterial activity against Escherichia coli K101; format: functional
Salmonella typhimurium = experiment: Antibacterial activity against Salmonella typhimurium 7731 incubated for 12 to 18 hrs by microbroth dilution method; format: functional, Salmonella enterica subsp. enterica serovar Typhimurium; conditions: Salmonella enterica, time 12-18 hrs
Enterococcus faecalis = experiment: Antibacterial activity against Enterococcus faecalis 29212 incubated for 12 to 18 hrs by microbroth dilution method; format: functional; conditions: time 12-18 hrs
Escherichia coli [24] = experiment: Antibacterial activity against Escherichia coli K88 infected in ICR mouse model of peritoneal sepsis assessed as bacterial load reduction in spleen at 20 mg/kg, ip measured after 10 hrs; format: functional, organism-based
[25] = Selectivity ratio of MIC for antibacterial activity against Lactococcus lactis NZ9000 to MIC for antibacterial activity against Escherichia coli K88; format: functional
Pseudomonas aeruginosa [26] = experiment: Antibacterial activity against Pseudomonas aeruginosa PAO1 incubated for 12 to 18 hrs by microbroth dilution method; format: functional; conditions: time 12-18 hrs
Escherichia coli [27] = experiment: Antibacterial activity against Escherichia coli K88 infected in ICR mouse model of peritoneal sepsis assessed as reduction in blood TNF-alpha level at 20 mg/kg, ip measured after 10 hrs; format: functional, organism-based
Escherichia coli [28] = experiment: Induction of cytoplasmic membrane depolarization in Escherichia coli K88 at 2 uM by DiSC3-5 dye based analysis; format: functional, organism-based
[29] = Selectivity ratio of MIC for antibacterial activity against Enterococcus faecalis 29212 to MIC for antibacterial activity against Escherichia coli K95; format: functional
[30] = Toxicity in ICR mouse assessed as change in serum ALP level at 10 to 40 mg/kg, ip treated for 3 days consecutively; format: organism-based; conditions: in vivo, 72 h, dose 10-40 mg/kg, time 3 day
[31] = Toxicity in ICR mouse assessed as change in kidney index at 10 to 40 mg/kg, ip treated for 3 days consecutively; format: organism-based; conditions: in vivo, 72 h, dose 10-40 mg/kg, time 3 day
Escherichia coli [32] = experiment: Antibacterial activity against Escherichia coli 1515 incubated for 12 to 18 hrs by microbroth dilution method; format: functional; conditions: time 12-18 hrs
[33] = Selectivity ratio of MIC for antibacterial activity against Staphylococcus epidermidis 12228 to MIC for antibacterial activity against Escherichia coli K91; format: functional
Escherichia coli [34] = experiment: Induction of outer membrane permeability in Escherichia coli K88 assessed as NPN leakage at 2 uM relative to control; format: functional
Escherichia coli [35] = experiment: Antibacterial activity against Escherichia coli K88 incubated for 12 to 18 hrs by microbroth dilution method; format: functional; conditions: time 12-18 hrs
[36] = Toxicity in ICR mouse assessed as change in liver index at 10 to 40 mg/kg, ip treated for 3 days consecutively; format: organism-based; conditions: in vivo, 72 h, dose 10-40 mg/kg, time 3 day
Escherichia coli [37] = experiment: Antibacterial activity against Escherichia coli K88 infected in ICR mouse model of peritoneal sepsis assessed as bacterial load reduction in lung at 20 mg/kg, ip measured after 10 hrs; format: functional, organism-based
Staphylococcus aureus [38] = experiment: Antibacterial activity against Staphylococcus aureus 29213 incubated for 12 to 18 hrs by microbroth dilution method; format: functional; conditions: time 12-18 hrs
Escherichia coli [39] = experiment: Antibacterial activity against Escherichia coli K88 infected in ICR mouse model of peritoneal sepsis assessed as reduction in vacuolar degeneration of hepatocytes at 20 mg/kg, ip measured after 10 hrs by H and E staining based analysis; format: functional, organism-based
Escherichia coli [40] = experiment: Antibacterial activity against Escherichia coli K88 infected in ICR mouse model of peritoneal sepsis assessed as bacterial load reduction in liver at 20 mg/kg, ip measured after 10 hrs; format: functional, organism-based
Escherichia coli [41] = experiment: Induction of inner membrane permeability in Escherichia coli K88 assessed as increase in ONP level at 2 uM; format: functional, organism-based
Escherichia coli [42] = experiment: Induction of resistance development in Escherichia coli K88 at sub-MIC measured after 20 passages; format: functional, organism-based
[43] = Relative hydrophobic moment of compound; format: physicochemical
[44] = system: Lacticaseibacillus rhamnosus; experiment: Antibacterial activity against Lactobacillus rhamnosus 7469 incubated for 12 to 18 hrs by microbroth dilution method; format: functional; conditions: time 12-18 hrs

CC[C@@H](C)[C@H](NC(=O)CNC(=O)[C@@H]1CCCN1C(=O)[C@H](CCCCN)NC(=O)[C@H](Cc1c[nH]c2ccccc12)NC(=O)[C@@H](NC(=O)[C@H](CCCCN)NC(=O)[C@H](CCCCN)NC(=O)[C@H](Cc1c[nH]c2ccccc12)NC(=O)[C@H](Cc1ccc(O)cc1)NC(=O)[C@H](CCCCN)NC(=O)[C@@H](NC(=O)[C@H](CC(C)C)NC(=O)[C@H](CC(N)=O)NC(=O)CNC(=O)[C@@H](N)CO)[C@@H](C)O)[C@@H](C)CC)C(=O)N[C@@H](CCCCN)C(=O)N[C@@H](CCCCN)C(=O)N[C@@H](Cc1c[nH]c2ccccc12)C(=O)N[C@H](C(=O)N[C@@H](CCCCN)C(=O)O)[C@H](C)CC
Activity (Escherichia coli [1]): Active | viability at 4 h, 128 µM [2]: > 80% | Kd [3]: 4.72 µM | Activity (Escherichia coli [4]): Dose-dependent-effect | MIC (Staphylococcus aureus [5]): 128 µM (≈ 333 µg/mL) | inhibition (Escherichia coli [6]): Active | Activity (Escherichia coli [7]): Active | MIC (Bacteria [8]): 4 µM (≈ 10.4 µg/mL) | Ratio [9]: >2 | MIC (Staphylococcus aureus [10]): 128 µM (≈ 333 µg/mL) | MIC (Pseudomonas aeruginosa [11]): 8 µM (≈ 20.8 µg/mL) | MIC (Escherichia coli [12]): 8 µM (≈ 20.8 µg/mL) | Activity (Escherichia coli [13]): Dose-dependent-effect | Ratio [14]: >2 | Activity [15]: Non-toxic | MIC [16]: 128 µM (≈ 333 µg/mL) | Activity (Escherichia coli [17]): Active | Activity (Escherichia coli [18]): Active | Activity (Escherichia coli [19]): Active | MIC (Bacteria [20]): 2 µM (≈ 5.21 µg/mL) | Ratio [21]: >2 | Ratio [22]: >2 | Ratio [23]: >2 | MIC (Salmonella typhimurium): 4 µM (≈ 10.4 µg/mL) | MIC (Enterococcus faecalis): 128 µM (≈ 333 µg/mL) | Activity (Escherichia coli [24]): Active; Activity Comparable To Colistin Treatment | Ratio [25]: >2 | MIC (Pseudomonas aeruginosa [26]): 4 µM (≈ 10.4 µg/mL) | Activity (Escherichia coli [27]): Active | Activity (Escherichia coli [28]): Active | Ratio [29]: >2 | Activity [30]: Non-toxic | Activity [31]: Non-toxic | MIC (Escherichia coli [32]): 4 µM (≈ 10.4 µg/mL) | Ratio [33]: >2 | Activity (Escherichia coli [34]): ~50% | MIC (Escherichia coli [35]): 2 µM (≈ 5.21 µg/mL) | Activity [36]: Non-toxic | Activity (Escherichia coli [37]): Active; Activity Comparable To Colistin Treatment | MIC (Staphylococcus aureus [38]): 128 µM (≈ 333 µg/mL) | Activity (Escherichia coli [39]): Active | Activity (Escherichia coli [40]): Active; Activity Comparable To Colistin Treatment | Activity (Escherichia coli [41]): Active | Activity (Escherichia coli [42]): inactive | Activity [43]: 0.583 | MIC [44]: 128 µM (≈ 333 µg/mL)
